From patent US8404284B2, “Medicinal and herbal composition and uses thereof” (priority 2010, dated 2013)

Assays:
[1] = Treatment of mild myocarditis / tachycardia in subjects; assay type: in vivo, human; settings: for Response of mild myocarditis: four subjects
Description: Rogers et. al. described an IRIS case which manifested in the form of fulminant myocarditis. […] All four subjects of the instant experiment had no previous heart condition and were started with the HC alone, but were given LDN after the first mortality had occurred.
They were turned down several times to be a participant in the herbal program because they refused to take their spouse for counseling. […] They were diagnosed with borderline cardiomegaly around one year after initially testing HIV positive, and developed tachycardia, but had no subjective complaint and never developed fever. We maintained them on Lanoxin 250 μg, which controlled their heart rate below 100 beats/minute, and also started them on LDN.

[2] = Clinical observation of adverse effects; assay type: in vivo, human; settings: 960 mg tablets daily
Protocol: Patients were tested weekly for progress and toxicities. We then determined a dose which can be tolerated by most of the patients, and recruited more subjects. In a preferred embodiment, two HC's (one each, B.I.D), approximately equal to 500 mg of the active ingredients of U.S. Pat. No. 7,556,830 per day, are administered. However, adjustments must be made according to the body weight of the subject, and lesser or higher dosages of as low as 100 mg and as high as 1 g, can be deployed. As a majority of the patients' health improved, we progressively scheduled their appointments further apart, to once every two weeks, and then, on a monthly basis.

[3] = tested on: HIV; settings: LDN alone on HIV+ subjects; stated by Bihari; cited from earlier work
[4] = cited from earlier work

For `NS(=O)(=O)c1cc(C(=O)O)c(NCc2ccco2)cc1Cl` [furosemide], the “Response of mild myocarditis” value [1] was “responded promptly”.

For `C[C@H]1O[C@@H](O[C@H]2[C@@H](O)C[C@H](O[C@H]3[C@@H](O)C[C@H](O[C@H]4CC[C@@]5(C)[C@H](CC[C@@H]6[C@@H]5C[C@@H](O)[C@]5(C)[C@@H](C7=CC(=O)OC7)CC[C@]65O)C4)O[C@@H]3C)O[C@@H]2C)C[C@H](O)[C@@H]1O` [digoxin], the “Response of mild myocarditis” value [1] was “responded promptly” and the Heart rate ([1]; patient, tachycardia, 250 μg) was “below 100 beats/minute”.

With cotrimoxazole the Bone marrow suppression [2] was “several patients developed bone marrow suppression”.

In the case of `O=C1CC[C@@]2(O)[C@H]3Cc4ccc(O)c5c4[C@@]2(CCN3CC2CC2)[C@H]1O5` [Naltrexone, 17-(cyclopropylmethyl)-4,5α-epoxy-3,14-dihydroxymorphinan-6-one], the “Effect on CD4 count” value [3] is listed as “does not increase CD4 count, but only maintains its level or delays its decrease” and the Bioavailability [4] is listed as 5-40%.
